Source: patent US11596639B2, “Substituted indole Mcl-1 inhibitors” (Vanderbilt University, priority 2016, dated 2023)

How the values were obtained:
Mcl-1 [1] = biological target: T1, Mcl-1 (Homo sapiens (Human), UniProt Q07820); experiment: TR-FRET binding assay, FITC-Bak peptide and MBP-tagged Mcl-1; settings: read-out: Ki for Inhibition of Mcl-1 by TR-FRET assay
Experimental: Compounds are diluted in DMSO in a 16-point, semilog serial dilution scheme. […] The plate was mixed and incubated for 3 hours at room temperature. […] TR-FRET signal is plotted and IC50 and Ki values are calculated in the same manner as the fluorescence polarization anisotropy based competition assays.

Mcl-1 [2] = biological target: T1, Mcl-1; experiment: Fluorescence polarization anisotropy (FPA) competition assay, FITC-Bak or FITC-Bim BH3 peptide; type: binding; settings: read-out: Ki for Inhibition of Mcl-1 by FPA assay
[3] = test system: H929 human cancer cell lines; experiment: Cellular viability / proliferation (Cell TiterGlo, 72 h); type: cell-based; settings: Homo sapiens, NCI-H929, 72 h, read-out: GI50 on cellular proliferation of H929 human cancer cell lines, H929 cells, 72 h, Cell TiterGlo, 10% FBS
Summary of the method: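 Top dose 50 μM, serially diluted 2-fold, applied one day after seeding (1,000 cells/well, 10% FBS), DMSO below 1%.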

T1 sequence (Q07820 172-327): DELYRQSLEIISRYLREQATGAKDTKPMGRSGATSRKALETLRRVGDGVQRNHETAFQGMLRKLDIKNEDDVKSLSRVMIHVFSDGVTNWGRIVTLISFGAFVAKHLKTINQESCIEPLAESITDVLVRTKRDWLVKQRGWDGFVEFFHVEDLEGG

For `Cc1cc(OCCCc2c3n(c4c(-c5c(C)nn(C)c5C)c(Cl)ccc24)[C@H](C)CN(c2cc(N(C)C(=O)CN4CCN(C)CC4)cc4c(C(=O)O)cn(C)c24)C3=O)cc(C)c1Cl` [Example 604, (R)-7-(7-chloro-10-(3-(4-chloro-3,5-dimethylphenoxy)propyl)-4-methyl-1-oxo-6-(1,3,5-trimethyl-1H-pyrazol-4-yl)-3,4-dihydropyrazino[1,2-a]indol-2(1H)-yl)-t-methyl-5-(N-methyl-2-(4-methylpiperazin-1-yl)acetamido)-1H-indole-3-carboxylic acid], the Ki (Mcl-1 [1]) was 0.73 nM.
Molecule `COCCOc1cc(N2C[C@@H](C)n3c(c(CCCOc4cc(C)c(Cl)c(C)c4)c4ccc(Cl)c(-c5c(C)nn(C)c5C)c43)C2=O)c2c(c1)cc(C(=O)O)n2C` [Example 711, (M, R)-7-(7-chloro-10-(3-(4-chloro-3,5-dimethylphenoxy)propyl)-4-methyl-1-oxo-6-(1,3,5-trimethyl-1H-pyrazol-4-yl)-3,4-dihydropyrazino[1,2-a]indol-2(1H)-yl)-5-(2-methoxyethoxy)-1-methyl-1H-indole-2-carboxylic acid] has a Ki (Mcl-1 [1]) of under 0.2 nM.
In the case of `Cc1cc(OCCCc2c3n(c4c(-c5c(C)nn(C)c5C)c(Cl)ccc24)[C@H](C)CN(c2cc(N(C)C(=O)CN4CCCC4)cc4c(C(=O)O)cn(C)c24)C3=O)cc(C)c1Cl` [Example 613, (R)-7-(7-chloro-10-(3-(4-chloro-3,5-dimethylphenoxy)propyl)-4-methyl-1-oxo-6-(1,3,5-trimethyl-1H-pyrazol-4-yl)-3,4-dihydropyrazino[1,2-a]indol-2(1H)-yl)-1-methyl-5-(N-methyl-2-(pyrrolidin-1-yl)acetamido)-1H-indole-3-carboxylic acid], the Ki (Mcl-1 [1]) is reported as 1.9 nM.
Molecule `Cc1cc(OCCCc2c3n(c4c(-c5c(C)nn(C)c5C)c(Cl)ccc24)[C@H](C)CN(c2cc(NC(=O)CCN4CCN(C)CC4)cc4c(C(=O)O)cn(C)c24)C3=O)cc(C)c1Cl` [Example 551, (R)-7-(7-chloro-10-(3-(4-chloro-3,5-dimethylphenoxy)propyl)-4-methyl-1-oxo-6-(1,3,5-trimethyl-1H-pyrazol-4-yl)-3,4-dihydropyrazino[1,2-a]indol-2(1H)-yl)-1-methyl-5(3-(4-methylpiperazin-1-yl)propanamido)-1H-indole-3-carboxylic acid] has a Ki (Mcl-1 [1]) of 0.3 nM.
In the case of `Cc1cc(OCCCc2c3n(c4c(-c5c(C)nn(C)c5C)c(Cl)ccc24)[C@H](C)CN(c2cc(NC(=O)CN4CCN(C)CC4)cc4c(C(=O)O)cn(C)c24)C3=O)cc(C)c1Cl` [Example 554, (R)-7-(7-chloro-10-(3-(4-chloro-3,5-dimethylphenoxy)propyl)-4-methyl-1-oxo-6-(1,3,5-trimethyl-1H-pyrazol-4-yl)-3,4-dihydropyrazino[1,2-a]indol-2(1H)-yl)-1-methyl-5-(2-(4-methylpiperazin-1-yl)acetamido)-1H-indole-3-carboxylic acid], the Ki (Mcl-1 [1]) is reported as 0.26 nM.
`COc1ccc(N2C[C@@H](C)n3c(c(CCCOc4cc(C)c(Cl)c(C)c4)c4ccc(Cl)c(-c5c(C)nn(C)c5C)c43)C2=O)c2c1cc(C(=O)O)n2C` [Example 192, (R)-7-(7-Chloro-10-(3-(4-chloro-3,5-dimethylphenoxy)propyl)-4-methyl-1-oxo-6-(1,3,5-trimethyl-1H-pyrazol-4-yl)-3,4-dihydropyrazino[1,2-a]indol-2(1H)-yl)-4-methoxy-1-methyl-1H-indole-2-carboxylic acid] showed a Ki (Mcl-1 [2]) of under 1 nM and a GI50 [3] of under 200 nM.
With `Cc1cccc(Cn2c(C(=O)O)cc3cccc(N4C[C@@H](C)n5c(c(CCCOc6cc(C)c(Cl)c(C)c6)c6ccc(Cl)c(-c7c(C)nn(C)c7C)c65)C4=O)c32)n1` [Example 381, (R)-7-(7-Chloro-10-(3-(4-chloro-3,5-dimethylphenoxy)propyl)-4-methyl-1-oxo-6-(1,3,5-trimethyl-1H-pyrazol-4-yl)-3,4-dihydropyrazino[1,2-a]indol-2(1H)-yl)-1-((6-methylpyridin-2-yl)methyl)-1H-indole-2-carboxylic acid] the Ki (Mcl-1 [2]) was 2.6 nM and the GI50 [3] was 250 nM.
